Source: patent publication US20070197591A1, “USE OF PALIPERIDONE FOR THE TREATMENT OF A MENTAL DISORDER IN A PSYCHIATRIC PATIENT WITH REDUCED HEPATIC FUNCTION” (priority 2005, published 2007)

Assays:
[1] = Plasma protein binding / unbound fraction of paliperidone and its enantiomers; assay type: in vitro ADME, human
Description: Objectives: The primary objective of this study was to investigate the single-dose pharmacokinetics of immediate-release (IR) paliperidone, after oral administration, in subjects having moderate hepatic impairment (“hepatically-impaired subjects”) compared with subjects having normal hepatic function (“healthy subjects”). The secondary objective was to document the plasma protein binding and disposition of the enantiomers of paliperidone. In addition, the tolerability and safety profile of IR paliperidone was compared between hepatically impaired subjects and healthy subjects. Criteria for Evaluation: Pharmacokinetics: Plasma and urine concentrations of the paliperidone enantiomers (+) R078543 and (−) R078544 were determined using an LC-MS/MS method. Concentrations of paliperidone were calculated as the sum of the enantiomer concentrations. In addition, serum and urine concentrations of creatinine were determined for the calculation of CLCR. The protein binding and unbound fraction was determined for the 2 paliperidone enantiomers. The unbound fraction for paliperidone was calculated.

[2] = clinical; design: species or system human; conditions: human, in vivo
Description: Objectives: to investigate the metabolic pathways of paliperidone and excretion of paliperidone and its metabolites in healthy adult male subjects, both CYP2D6 poor and extensive metabolizers, after administration of a single 1-mg oral dose of ^14C-paliperidone. In addition, to evaluate the safety and tolerability of paliperidone, as well as the relationship between genotypes (CYP2D6, CYP3A4, CYP3A5, UGT1A1, and UGT1A6) and exposure to paliperidone and its metabolites.
Methodology: Single-center, single-dose open-label study of the absorption, metabolism, and excretion (AME) of paliperidone in healthy men (3 extensive and 3 poor metabolizers based on CPY2D6 phenotype). […] Each subject received a single oral dose of ^14C-paliperidone with total radioactivity below […] (16 μCi). Blood samples for plasma pharmacokinetic profile were obtained immediately before study drug administration and 0.5, 1, 1.5, 3, 6, 12, 16, 36, 48, 72, 96, 120, 144 and 168 hours postdose. Blood samples were obtained 2, 4, 8, and 24 hours postdose for determination of ^14C in whole blood. Samples for determination of serum creatinine were obtained 2, 4, 8, and 24 hours postdose. Urine was collected immediately prior to drug administration and from 0-4, 4-8, 8-12, 12-16, 16-24, 24-36, 36-48, 48-72, 96-120, 120-144, and 144-168 hours after study drug administration. Fecal samples were colleted per each stool, once before study drug administration and in the period from 0-168 hours after study drug administration. Collections of urine and feces (per 24 hours) were to continue beyond 168 hours, to a maximum of 336 hours (Day 15) for subjects who excrete radioactivity slowly (2 latest 24-hour urine collections each >2% of total radioactive dose) or have <7 feces stool samples over the 0 to 168-hour period. ^14C radioactivity was measured in plasma, urine, and feces. Aliquots of the 0- through 24-hour urine collections were analyzed for cretinine. Plasma concentrations of paliperidone and risperidone were determined by means of a validated LC-MS/MS method. The ^14C-labeled moiety in plasma and urine was determined by liquid scintillation counting. For all plasma samples, the lower limits of quantification for paliperidone and risperidone were 0.100 ng/mL. For all plasma and urine samples the lower limits of quantification for ^14C-palieridone was 72 dpm/mL (=2.0 n g-eq/mL).
Number of Subjects (Planned and Analyzed): Six healthy men, 3 extensive and 3 poor metabolizers based on CYP2D6 phenotype were to participate in the study. Five subjects, 3 extensive and 2 poor metabolizers, received a single dose of ^14C-paliperidone, completed the study (i.e., completed all assessments through Day 8) and were considered valuable for safety (the Safety Analysis Set), as well as for pharmacokinetics.
Test Product, Dose and Mode of Administration Batch No.: Single oral 0.988-mg dose of ^14C-paliperidone, oral solution (aqueous formulation at a final concentration of 0.0984 mg/mL). Batch No.: unlabeled paliperidone oral solution: ZR076477EIA031 (manufacturing date: 23 Apr. 2003, retest date: 23 Oct. 2004): ^14C-paliperidone: 1763 (expiration date: not applicable)
Criteria for Evaluation: Pharmacokinetics: Plasma paliperidone. ^14C radioactivity and metabolite profiles were determined. Plasma Cmax, tmax, AUClast, AUC24, AUC∞, λZ, t1/2term, CL/F of ^14C and paliperidone were estimated by non-compartmental analysis. Based on the individual urine excretion data and on the serum creatinine concentrations, Ae, Ae, % dose, CLR, CLR,24h and CLer and paliperidone and CLGFR, and CLact of paliperidone were estimated. The excretion half-life of ^14C in urine was also estimated based on excretion rate-time profiles.
Statistical Methods: Pharmacokinetics: Plasma concentrations of ^14C and paliperdone as well as estimates for pharmacokinetic parameters were listed and graphically presented, and the excretion analysis of total radioactivity in plasma, urine and feces were summarized. […]

[3] = Safety and tolerability, single oral 1-mg ^14C-paliperidone in healthy men; assay type: in vivo, human
Procedure: Safety: Evaluation was based on the incidence, type, and severity of all treatment-emergent adverse events, and on change from screening to the end of the study in clinical laboratory results, vital sign measurements, and postural changes in blood pressure and heart rate.
Safety: The number of subjects with adverse events was summarized. Summary statistics were calculated for clinical laboratory values. Other safety data were listed by individual sect. Changes in blood pressure and heart rate measurements were also presented graphically.

[4] = Hepatically-Impaired Subjects (n = 10; paliperidone n = 8)

Row | Molecule | Unbound Fraction ([1]; Healthy Subjects (n = 10)) | Unbound Fraction [1, 4] | AUC∞ [2] [ng-eq.h/mL] | deaths, serious adverse events ([3]; 5 healthy men, single oral 1-mg dose) | changes in laboratory test results ([3]; in vivo, po) | overall safety and tolerability ([3]; in vivo, po) | subjects with treatment-emergent adverse events ([3]; in vivo, po)
1 | Cc1nc2n(c(=O)c1CCN1CCC(c3noc4cc(F)ccc34)CC1)CCCC2O (single isomer, unassigned; (-)) [(−) R078544] | 0.385 ± 0.0416 | 0.457 ± 0.0504 | – | – | – | – | –
2 | Cc1nc2n(c(=O)c1CCN1CCC(c3noc4cc(F)ccc34)CC1)CCC[C@H]2O [(+) R078543] | 0.215 ± 0.0469 | 0.306 ± 0.0687 | – | – | – | – | –
3 | ^14C-paliperidone | – | – | 175 | no deaths, no serious adverse events | no clinically relevant changes | safe and well tolerated | Two of the 5 subjects
